The assay addresses human TRPV4 (Homo sapiens (Human), UniProt Q9HBA0). Kind of assay: FLIPR assay for hTRPV4 expressed in BHK cells. Format: cell-based. The essentials: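 BHK/AC9 cells transduced with BacMam human TRPV4 (MOI 78), 15,000 cells/well, cultured 24 h at 37 °C. Loaded with 2 μM Fluo-4 AM and 500 μM Brilliant Black in HBSS for 1–1.5 h at room temperature in the dark. Intracellular calcium influx monitored by fluorescence.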

Where [1] appears, read: inhibition of Agonist Compound (EC80)-induced calcium signal, BHK/AC9 cells expressing human TRPV4, read-out: IC50.

Where two headings read alike, the source gives them in different places.

human TRPV4, sequence (Q9HBA0 whole entry): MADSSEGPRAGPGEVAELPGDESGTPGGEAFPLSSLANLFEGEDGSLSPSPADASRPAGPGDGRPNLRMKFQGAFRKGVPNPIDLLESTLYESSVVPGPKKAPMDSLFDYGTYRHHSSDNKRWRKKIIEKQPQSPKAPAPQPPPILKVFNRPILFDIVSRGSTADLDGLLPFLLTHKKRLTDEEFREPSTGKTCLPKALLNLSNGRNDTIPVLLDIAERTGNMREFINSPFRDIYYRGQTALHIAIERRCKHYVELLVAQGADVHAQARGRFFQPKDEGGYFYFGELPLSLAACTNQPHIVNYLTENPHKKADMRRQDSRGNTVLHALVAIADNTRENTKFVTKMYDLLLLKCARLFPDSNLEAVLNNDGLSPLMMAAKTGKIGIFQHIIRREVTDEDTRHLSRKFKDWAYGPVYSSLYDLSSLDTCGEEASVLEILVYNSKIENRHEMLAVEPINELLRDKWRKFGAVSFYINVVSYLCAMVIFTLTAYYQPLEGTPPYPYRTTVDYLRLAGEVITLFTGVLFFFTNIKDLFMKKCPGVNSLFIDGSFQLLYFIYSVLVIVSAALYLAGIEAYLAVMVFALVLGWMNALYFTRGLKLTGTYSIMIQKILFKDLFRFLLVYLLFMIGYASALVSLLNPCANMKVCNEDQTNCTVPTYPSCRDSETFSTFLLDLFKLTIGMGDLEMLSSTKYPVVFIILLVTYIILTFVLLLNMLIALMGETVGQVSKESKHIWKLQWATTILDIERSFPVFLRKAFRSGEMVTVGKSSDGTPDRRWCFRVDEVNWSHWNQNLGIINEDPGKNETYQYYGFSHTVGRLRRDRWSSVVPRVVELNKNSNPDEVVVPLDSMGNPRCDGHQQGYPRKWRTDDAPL

The IC50 is the concentration that inhibits the measured activity by half. Turning to `O=S(=O)(c1cnc(C(F)(F)F)nc1)[C@H]1CN(S(=O)(=O)c2ccc(Cl)cc2Cl)C[C@@]1(O)CO` [Example 108, (3R,4S)-1-((2,4-dichlorophenyl)sulfonyl)-3-(hydroxymethyl)-4-((2-(trifluoromethyl)pyrimidin-5-yl)sulfonyl)pyrrolidin-3-ol], the IC50 under setting [1] was 10 to 100 nM.
The same measure, in the same setting: the figure for `CNC[C@]1(O)CN(S(=O)(=O)c2ccc(C#N)cc2Cl)C[C@@H]1S(=O)(=O)c1ccc(Cl)cc1` [Example 124, 3-chloro-4-(((3S,4S)-4-((4-chlorophenyl)sulfonyl)-3-hydroxy-3-((methylamino)methyl)pyrrolidin-1-yl)sulfonyl)benzonitrile] is 0.1 to 10 nM; for `N#Cc1ccc(S(=O)(=O)[C@H]2CN(S(=O)(=O)c3ccccc3Cl)C[C@]2(O)CO)cc1F` [Example 4, 4-(((3S,4S)-1-((2-chlorophenyl)sulfonyl)-4-hydroxy-4-(hydroxymethyl)pyrrolidin-3-yl)sulfonyl)-2-fluorobenzonitrile] it is 10 to 100 nM; for `N#Cc1ccc(S(=O)(=O)[C@H]2CN(S(=O)(=O)c3ccc(F)cc3Cl)C[C@@]2(O)CO)cc1F` [Example 12, 4-(((3S,4R)-1-((2-chloro-4-fluorophenyl)sulfonyl)-4-hydroxy-4-(hydroxymethyl)pyrrolidin-3-yl)sulfonyl)-2-fluorobenzonitrile] it is 0.1 to 10 nM.
As for `N#Cc1c(F)cc(S(=O)(=O)[C@H]2CN(S(=O)(=O)c3ccc(C(F)(F)F)cc3Cl)C[C@@]2(O)CO)cc1F` [Example 91, 4-(((3S,4R)-1-((2-chloro-4-(trifluoromethyl)phenyl)sulfonyl)-4-hydroxy-4-(hydroxymethyl)pyrrolidin-3-yl)sulfonyl)-2,6-difluorobenzonitrile], the 50% inhibitory concentration (IC50) under setting [1] lay in the range of 10 to 100 nM.
For `N#Cc1ccc(S(=O)(=O)N2C[C@H](S(=O)(=O)c3ccc(C(F)(F)F)cc3)[C@](O)(CO)C2)c(OC2CC2)c1` [Example 57, 3-cyclopropoxy-4-(((3R,4S)-3-hydroxy-3-(hydroxymethyl)-4-((4-(trifluoromethyl)phenyl)sulfonyl)pyrrolidin-1-yl)sulfonyl)benzonitrile], under setting [1], the IC50 lay within 10 to 100 nM.
For the compound `N#Cc1ccc(S(=O)(=O)[C@H]2CN(S(=O)(=O)c3ccc(Cl)cc3Cl)C[C@@]2(O)CO)cc1` [Example 82, 4-(((3S,4R)-1-((2,4-dichlorophenyl)sulfonyl)-4-hydroxy-4-(hydroxymethyl)pyrrolidin-3-yl)sulfonyl)benzonitrile], the IC50 under setting [1] was in the range of 0.1 to 10 nM.
For the compound `Cc1cc(C(F)(F)F)ccc1S(=O)(=O)N1C[C@H](S(=O)(=O)c2ccc(C#N)cc2)[C@](O)(CO)C1` [Example 28, 4-(((3S,4R)-4-hydroxy-4-(hydroxymethyl)-1-((2-methyl-4-(trifluoromethyl)phenyl)sulfonyl)pyrrolidin-3-yl)sulfonyl)benzonitrile], under setting [1], the IC50 was in the range of 10 to 100 nM.
On the same count and under the same terms, the same measure for `N#Cc1ccc(S(=O)(=O)N2C[C@H](S(=O)(=O)c3ccc(Cl)cc3)[C@](O)(CO)C2)c(C(F)(F)F)c1` [Example 19, 4-(((3R,4S)-4-((4-chlorophenyl)sulfonyl)-3-hydroxy-3-(hydroxymethyl)pyrrolidin-1-yl)sulfonyl)-3-(trifluoromethyl)benzonitrile]: 0.1 to 10 nM.
Same read-out and setting: the figure for `N#Cc1ccc(S(=O)(=O)[C@H]2CN(S(=O)(=O)c3ccc(C(F)(F)F)cc3Cl)C[C@]2(O)CO)cc1F` [Example 7, 4-(((3S,4S)-1-((2-chloro-4-(trifluoromethyl)phenyl)sulfonyl)-4-hydroxy-4-(hydroxymethyl)pyrrolidin-3-yl)sulfonyl)-2-fluorobenzonitrile] is 10 to 100 nM; for `O=S(=O)(c1ccc(Cl)cc1)[C@H]1CN(S(=O)(=O)c2cccnc2OC(F)F)C[C@@]1(O)CO` [Example 67, (3R,4S)-4-((4-chlorophenyl)sulfonyl)-1-((2-(difluoromethoxy)pyridin-3-yl)sulfonyl)-3-(hydroxymethyl)pyrrolidin-3-ol] it is 10 to 100 nM.
Consider `O=S(=O)(c1ccc(Cl)cc1)[C@H]1CN(S(=O)(=O)c2ccc(Cl)cc2Cl)C[C@@]1(O)CO` [Example 18, (3R,4S)-4-((4-chlorophenyl)sulfonyl)-1-((2,4-dichlorophenyl)sulfonyl)-3-(hydroxymethyl)pyrrolidin-3-ol], for which the IC50 under setting [1] is 10 to 100 nM.
Consider `N#Cc1ccccc1S(=O)(=O)N1C[C@H](S(=O)(=O)c2ccc(Cl)cc2)[C@](O)(CO)C1` [Example 47, 2-(((3R,4S)-4-((4-chlorophenyl)sulfonyl)-3-hydroxy-3-(hydroxymethyl)pyrrolidin-1-yl)sulfonyl)benzonitrile], for which the IC50 under setting [1] was 10 to 100 nM.
Turning to `N#Cc1ccc(S(=O)(=O)N2C[C@H](S(=O)(=O)c3ncc(Cl)s3)[C@](O)(CO)C2)c(Cl)c1` [Example 73, 3-chloro-4-(((3R,4S)-4-((5-chlorothiazol-2-yl)sulfonyl)-3-hydroxy-3-(hydroxymethyl)pyrrolidin-1-yl)sulfonyl)benzonitrile], under setting [1], the IC50 fell in the range of 10 to 100 nM.
As for `N#Cc1ccc(S(=O)(=O)N2C[C@H](S(=O)(=O)c3ccc(Cl)cn3)[C@@](O)(CN)C2)c(Cl)c1` [Example 125, 4-(((3R,4S)-3-(aminomethyl)-4-((5-chloropyridin-2-yl)sulfonyl)-3-hydroxypyrrolidin-1-yl)sulfonyl)-3-chlorobenzonitrile], the half-inhibitory concentration (IC50) under setting [1] was 0.1 to 10 nM.
Same read-out and setting: the figure for `O=S(=O)(c1ccc(Cl)cc1)[C@H]1CN(S(=O)(=O)c2ccc(Cl)cc2C(F)F)C[C@@]1(O)CO` [Example 65, (3R,4S)-1-((4-chloro-2-(difluoromethyl)phenyl)sulfonyl)-4-((4-chlorophenyl)sulfonyl)-3-(hydroxymethyl)pyrrolidin-3-ol] is 10 to 100 nM.
Take `N#Cc1ccc(S(=O)(=O)[C@H]2CN(S(=O)(=O)c3ccc(Cl)cc3Cl)C[C@@]2(O)CO)c(F)c1` [Example 86, 4-(((3S,4R)-1-((2,4-dichlorophenyl)sulfonyl)-4-hydroxy-4-(hydroxymethyl)pyrrolidin-3-yl)sulfonyl)-3-fluorobenzonitrile]: the IC50 under setting [1] lay in the range of 10 to 100 nM.
On to `Cc1cc(C#N)ccc1S(=O)(=O)N1C[C@H](S(=O)(=O)c2ccc(C#N)c(F)c2)[C@](O)(CO)C1` [Example 70, 4-(((3S,4R)-1-((4-cyano-2-methylphenyl)sulfonyl)-4-hydroxy-4-(hydroxymethyl)pyrrolidin-3-yl)sulfonyl)-2-fluorobenzonitrile], for which the IC50 under setting [1] was in the range of 0.1 to 10 nM.
Still for that read-out and setting: the same measure for `O=S(=O)(c1ccc(Cl)c(F)c1)[C@H]1CN(S(=O)(=O)c2ccc(C(F)(F)F)cc2Cl)C[C@]1(O)CO` [Example 78, (3S,4S)-4-((4-chloro-3-fluorophenyl)sulfonyl)-1-((2-chloro-4-(trifluoromethyl)phenyl)sulfonyl)-3-(hydroxymethyl)pyrrolidin-3-ol]: 10 to 100 nM; for `N#Cc1cc(C(F)(F)F)ccc1S(=O)(=O)N1C[C@H](S(=O)(=O)c2cc(F)c(F)c(F)c2)[C@](O)(CO)C1` [Example 94, 2-(((3R,4S)-3-hydroxy-3-(hydroxymethyl)-4-((3,4,5-trifluorophenyl)sulfonyl)pyrrolidin-1-yl)sulfonyl)-5-(trifluoromethyl)benzonitrile]: 10 to 100 nM; for `N#Cc1ccc(S(=O)(=O)N2C[C@H](S(=O)(=O)c3ccc(Cl)cc3)[C@@](O)(CNCC(F)(F)F)C2)c(Cl)c1` [Example 128, 3-chloro-4-(((3R,4S)-4-((4-chlorophenyl)sulfonyl)-3-hydroxy-3-(((2,2,2-trifluoroethyl)amino)methyl)pyrrolidin-1-yl)sulfonyl)benzonitrile]: 10 to 100 nM.
Still for that read-out and setting: the same measure for `N#Cc1ccccc1S(=O)(=O)N1C[C@H](S(=O)(=O)c2ccc(C(F)(F)F)cc2)[C@](O)(CO)C1` [Example 53, 2-(((3R,4S)-3-hydroxy-3-(hydroxymethyl)-4-((4-(trifluoromethyl)phenyl)sulfonyl)pyrrolidin-1-yl)sulfonyl)benzonitrile]: 10 to 100 nM.
Consider `N#Cc1ccc(S(=O)(=O)[C@H]2CN(S(=O)(=O)c3ccc(C(F)(F)F)cc3Cl)C[C@]2(O)CO)cc1` [Example 90, 4-(((3S,4S)-1-((2-chloro-4-(trifluoromethyl)phenyl)sulfonyl)-4-hydroxy-4-(hydroxymethyl)pyrrolidin-3-yl)sulfonyl)benzonitrile], for which the concentration for half-maximal inhibition (IC50) under setting [1] fell in the range of 10 to 100 nM.
Consider `Cc1ccc(S(=O)(=O)N2C[C@H](S(=O)(=O)c3ccc(C#N)c(F)c3)[C@@](O)(CO)C2)c(Cl)c1` [Example 6, 4-(((3S,4S)-1-((2-chloro-4-methylphenyl)sulfonyl)-4-hydroxy-4-(hydroxymethyl)pyrrolidin-3-yl)sulfonyl)-2-fluorobenzonitrile], for which the half-maximal inhibitory concentration (IC50) under setting [1] lay within 10 to 100 nM.
Consider `N#Cc1ccc(S(=O)(=O)[C@H]2CN(S(=O)(=O)c3ccc(F)cc3Br)C[C@@]2(O)CO)cc1` [Example 22, 4-(((3S,4R)-1-((2-bromo-4-fluorophenyl)sulfonyl)-4-hydroxy-4-(hydroxymethyl)pyrrolidin-3-yl)sulfonyl)benzonitrile], for which the IC50 runs as follows: (at least one set of experimental runs, TRPV4 FLIPR assay, read-out: average IC50) 13 nM; under setting [1], 10 to 100 nM.
Take `COC(=O)c1ccc(S(=O)(=O)[C@H]2CN(S(=O)(=O)c3ccc(Cl)cc3C(F)F)C[C@@]2(O)CO)cc1` [Example 64]: the IC50 under setting [1] was in the range of 10 to 100 nM.
For `N#Cc1cc(C(F)(F)F)ccc1S(=O)(=O)N1C[C@H](S(=O)(=O)c2ccc(F)c(F)c2)[C@@](O)(CO)C1` [Example 77, 2-(((3S,4S)-4-((3,4-difluorophenyl)sulfonyl)-3-hydroxy-3-(hydroxymethyl)pyrrolidin-1-yl)sulfonyl)-5-(trifluoromethyl)benzonitrile], the IC50 under setting [1] lay in the range of 10 to 100 nM.
The same measure, in the same setting: the same measure for `N#Cc1ccc(S(=O)(=O)N2C[C@H](S(=O)(=O)c3ccc(C(F)(F)F)nc3)[C@](O)(CO)C2)c(Br)c1` [Example 39, 3-bromo-4-(((3R,4S)-3-hydroxy-3-(hydroxymethyl)-4-((6-(trifluoromethyl)pyridin-3-yl)sulfonyl)pyrrolidin-1-yl)sulfonyl)benzonitrile]: 10 to 100 nM.

The values above are taken from patent publication US11260049B2, “TRPV4 antagonists” (GlaxoSmithKline Intellectual Property (No. 2) Limited, priority 2016, dated 2022).
